The subject of experiment [1] is HCN4-GFP positive cells derived from H7 embryoid body (pacemaker cells). Kind of experiment: Patch clamp measurement of the beating rate (spontaneous excitation) of the pacemaker cells. The note with it: for effect on beating rate of the pacemaker cells (in words): drug added to perfusion solution, patch clamp. It counts as cell-based, human. The protocol:
Patch clamp: Cells which had been collected by cell sorting were seeded on gelatin-coated, 8-mm diameter cover slips (Warner Instruments) in a number of about 1,500 cells. On or after the next day, a patch clump method was used to observe the automaticity and to analyze functions of ion channels.
The quantification of electrical activities by a patch clump method and of contraction by video recording was carried out.
The quantification of electrical activities by a patch clump method was carried out.
It was ascertained that the beating rate of the pacemaker cells according to the present invention was increased by means of isoproterenol, a sympathetic stimulant, and decreased by means of carbachol, a parasympathetic stimulant. In these experiments, a patch clamp method was used to measure directly electrical phenomena (spontaneous excitation) from the pacemaker cells. To the perfusion solution were added isoproterenol, a sympathetic stimulant, which increased [sic], and then carbachol, a parasympathetic stimulant, to examine their effects.
On the technique in general: Patch clamp records ionic current or voltage across a cell membrane.

For experiment [2], the system named is heart of a rat with atrioventricular block. Kind of experiment: Intraperitoneal isoproterenol in rat with atrioventricular block implanted with pacemaker cells, electrocardiogram. It counts as in vivo. The note with it: isoproterenol injected into the peritoneal cavity; AVB rat with implants; FIG. 19. As for the experimental part: Male ICR rats of 10 weeks old were used. Rats were administered with a 0.2 ml injection of an anesthetic (0.2% pentobarbital, MiliQ). Breathing assistance was provided by a mechanical ventilator and electrocardiogram monitoring was performed. A thoracotomy was made using an electrosurgical knife and 15 μl of 30% glycerol was injected using a microsyringe, into a place where the pulmonary artery is attached to the heart. It was ascertained, from the electrocardiogram, whether AVE wave forms (decrease in the beating rate, independent P and QRS waves) appeared when the injection allowed the atrioventricular node to be damaged. If AVB wave forms were not identified, injection of glycerol was done again. Thirty minutes after AVB wave forms were identified, the chest was closed after AVB wave forms were identified on the electrocardiogram. The ventilator was removed from each of the rats, which were subjected to oxygen inhalation at 37° C. When recovered from anesthesia, the rats were returned back to their cages. Pacemaker cells which were GFP positive cells were selected and collected by cell sorting. The pacemaker cells were collected in conical tubes, and then centrifuged at 1,000 rpm for 5 minutes to form a cell pellet, which was then suspended in differentiation induction medium. […]

For `C[N+](C)(C)CCOC(N)=O` [carbachol], in experiment [1] (carbachol in perfusion solution, after isoproterenol washout, before: 17 beats per 10 seconds, FIG. 16), the “beating rate in the presence of carbachol” value came to 8 beats per 10 seconds. Further, the “beating rate after washing out of carbachol” value in experiment [1] (carbachol washed out, FIG. 16) was 14 beats per 10 seconds. Further, the “effect on beating rate of the pacemaker cells (in words)” value in experiment [1] is “decreased”.
Regarding `CC(C)NCC(O)c1ccc(O)c(O)c1` (stereo not shown) [isoproterenol], the “beating rate in the presence of isoproterenol” value in experiment [1] (10^−5 M isoproterenol in perfusion solution, before: 54 beats per 10 seconds, FIG. 16) stood at 61 beats per 10 seconds. The “effect on beating rate of the pacemaker cells (in words)” value in experiment [1] is reported as “increased”. The “beating rate after washing out of isoproterenol” value in experiment [1] (washout after 10^−5 M isoproterenol, FIG. 16) is reported as 45 beats per 10 seconds. Also, in experiment [2], the “ventricular rhythm resulting from the implanted pacemaker cells after isoproterenol” value is “accelerated (tachycardia)”.
